One assay deals with HDAC6 (Homo sapiens (Human), UniProt Q9UBN7). Nature of the assay: HDAC in vitro enzymatic assay (fluorescence). It is filed as biochemical. To be noted: top concentration 2 μM. How it is done: Biological Tests Method for Measurement of Enzymatic Activity of HDACs Materials & Methods
All Examples were tested in HDAC1, 2, 3, 6 and 8 in vitro enzymatic assays. The assay principle is well known (Hauser et al. 2009, Bradner et al. 2010) and all necessary reagents like enzymes, substrates, developer and reference compounds are commercially available (see e.g. BPS Biosciences http://www.bpsbioscience.com/). A series of dilutions of the compounds were prepared with a top concentration of 200 μM (2 μM for HDAC6). The enzymatic reactions were conducted in a mixture containing assay buffer, bovine serum albumin, HDAC substrate, and a test compound. After enzymatic reaction, developer was added and after an additional incubation time, fluorescence intensity was measured at an excitation wavelength of 360 nm and an emission wavelength of 460 nm. A selection of the Examples were tested in a full HDAC panel containing HDAC1, 2, 3, 4, 5, 6, 7, 8, 9, 10 and 11 in vitro enzymatic assays. The tests were performed as above except that a series of dilutions of the compounds were prepared with a top concentration of 10 μM for all HDACs.

In the next assay the target is HDAC1 (Homo sapiens (Human), UniProt Q13547). Nature of the assay: HDAC in vitro enzymatic assay (fluorescence). The following applies: read-out: IC50 HDAC1; selectivity profiling; top concentration 200 μM.
The target in a further assay is HDAC2 (Homo sapiens (Human), UniProt Q92769). In words: HDAC in vitro enzymatic assay (fluorescence). To be noted: read-out: IC50 HDAC2; selectivity profiling; top concentration 200 μM.
The next assay has as its target HDAC3 (Homo sapiens (Human), UniProt O15379). In words: HDAC in vitro enzymatic assay (fluorescence). The following applies: read-out: IC50 HDAC3; selectivity profiling; top concentration 200 μM.
The target in a further assay is HDAC8 (Homo sapiens (Human), UniProt Q9BY41). Nature of the assay: HDAC in vitro enzymatic assay (fluorescence). The following applies: read-out: IC50 HDAC8; selectivity profiling; top concentration 200 μM.
The test system of another assay is AMO-1 (plasmacytom). Nature of the assay: CellTiter-Blue cell viability assay. It counts as cell-based. The following applies: Homo sapiens, AMO1; AMO-1 cells, 72 hours of treatment; read-out: IC50 AMO-1 (cell viability). The protocol:
(§1) Method for Measurement of Cell Viability
(§2) The CellTiter-Blue® Cell Viability Assay (Promega) provides a homogeneous, fluorometric method for estimating the number of viable cells present in multi-well plates. The assay uses the indicator dye resazurin to measure the metabolic capacity of cells. Viable cells retain the ability to reduce resazurin into resorufin, which is highly fluorescent.
(§3) Stock solutions (10 mM in DMSO) of compounds were serially diluted 1:2 in 11 concentrations. 50 nL/well (10 mM compound stock in DMSO) was acoustically dispensed in 384-well assay plates with an acoustic dispenser (EDC Biosystems ATS-100AV). Final starting concentration in the assay was 20 μM (0.2% DMSO) for test compounds. […] After 72 hours, Celltiter Blue reagent (Promega #G8081) was diluted 1:10 with PBS and then added to wells (5 μL/well). The plates were incubated for 2 hours following addition of reagent. […] Results were calculated as % cell viability compared to background (cells treated with 0.2% DMSO).
Background: The colour change of resazurin is a common sign of viable cells or microbes.

Assay [1] concerns PBMC (peripheral blood mononuclear cells from healthy donors). In words: CellTiter-Blue cell viability assay. It counts as cell-based. To be noted: healthy PBMC, 72 hours of treatment; read-out: IC50 healthy PBMC (cell viability). The protocol:
as §1, §2, §3

The test system of a further assay is U266 (multiple myelom). Nature of the assay: CellTiter-Blue cell viability assay. It counts as cell-based. To be noted: Homo sapiens, U-266; U266 cells, 72 hours of treatment; read-out: IC50 U266 (cell viability). How it is done:
as §1, §2, §3

Setting [2] is: read-out: IC50 values for inhibition of HDAC6.
Where [3] appears, read: selectivity profiling, read-out: IC50 HDAC6.

Structures can show the parent of a compound that is named as a salt. Where two headings read alike, the source gives them in different places. Where only a bound is given, the exact number is not on record here.

HDAC2, sequence (Q92769 whole entry): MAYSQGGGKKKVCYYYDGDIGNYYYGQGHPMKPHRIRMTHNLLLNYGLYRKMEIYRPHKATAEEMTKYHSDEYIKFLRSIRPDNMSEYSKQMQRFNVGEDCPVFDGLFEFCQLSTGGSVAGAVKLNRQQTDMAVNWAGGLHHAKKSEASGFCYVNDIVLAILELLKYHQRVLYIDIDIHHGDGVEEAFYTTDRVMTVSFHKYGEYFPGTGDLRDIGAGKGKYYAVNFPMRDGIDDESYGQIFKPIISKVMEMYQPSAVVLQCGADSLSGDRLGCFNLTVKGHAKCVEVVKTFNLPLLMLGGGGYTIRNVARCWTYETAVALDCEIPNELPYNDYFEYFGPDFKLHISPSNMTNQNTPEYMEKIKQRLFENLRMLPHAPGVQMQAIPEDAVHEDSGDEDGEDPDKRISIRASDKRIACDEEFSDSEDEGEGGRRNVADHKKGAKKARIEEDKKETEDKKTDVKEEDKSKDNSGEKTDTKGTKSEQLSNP
HDAC3, sequence (O15379 whole entry): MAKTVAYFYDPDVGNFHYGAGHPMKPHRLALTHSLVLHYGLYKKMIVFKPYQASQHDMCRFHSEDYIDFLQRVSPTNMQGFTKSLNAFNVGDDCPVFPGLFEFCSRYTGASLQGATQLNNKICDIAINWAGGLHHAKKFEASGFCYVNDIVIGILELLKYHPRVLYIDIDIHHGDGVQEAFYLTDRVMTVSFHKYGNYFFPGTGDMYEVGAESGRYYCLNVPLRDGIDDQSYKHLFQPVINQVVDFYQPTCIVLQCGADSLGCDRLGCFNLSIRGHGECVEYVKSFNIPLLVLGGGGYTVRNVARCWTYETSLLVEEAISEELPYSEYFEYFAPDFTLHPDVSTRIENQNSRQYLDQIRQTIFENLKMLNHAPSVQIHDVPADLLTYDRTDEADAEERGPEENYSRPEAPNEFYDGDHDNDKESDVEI
HDAC3, sequence (Q9Y618 395-489 partner): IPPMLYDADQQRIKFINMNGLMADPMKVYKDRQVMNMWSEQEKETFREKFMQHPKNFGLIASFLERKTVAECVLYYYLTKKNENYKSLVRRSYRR
HDAC8, sequence (Q9BY41 whole entry): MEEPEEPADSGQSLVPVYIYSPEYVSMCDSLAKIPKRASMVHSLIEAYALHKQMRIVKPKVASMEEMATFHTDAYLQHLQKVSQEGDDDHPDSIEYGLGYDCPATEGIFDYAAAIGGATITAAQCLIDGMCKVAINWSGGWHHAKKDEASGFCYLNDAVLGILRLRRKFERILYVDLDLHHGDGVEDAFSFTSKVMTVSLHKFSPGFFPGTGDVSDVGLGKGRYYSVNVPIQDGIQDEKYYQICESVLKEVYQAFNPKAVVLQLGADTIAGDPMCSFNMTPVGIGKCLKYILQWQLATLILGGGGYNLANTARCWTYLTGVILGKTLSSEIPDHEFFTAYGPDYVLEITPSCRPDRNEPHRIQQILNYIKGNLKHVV
HDAC1, sequence (Q13547 whole entry): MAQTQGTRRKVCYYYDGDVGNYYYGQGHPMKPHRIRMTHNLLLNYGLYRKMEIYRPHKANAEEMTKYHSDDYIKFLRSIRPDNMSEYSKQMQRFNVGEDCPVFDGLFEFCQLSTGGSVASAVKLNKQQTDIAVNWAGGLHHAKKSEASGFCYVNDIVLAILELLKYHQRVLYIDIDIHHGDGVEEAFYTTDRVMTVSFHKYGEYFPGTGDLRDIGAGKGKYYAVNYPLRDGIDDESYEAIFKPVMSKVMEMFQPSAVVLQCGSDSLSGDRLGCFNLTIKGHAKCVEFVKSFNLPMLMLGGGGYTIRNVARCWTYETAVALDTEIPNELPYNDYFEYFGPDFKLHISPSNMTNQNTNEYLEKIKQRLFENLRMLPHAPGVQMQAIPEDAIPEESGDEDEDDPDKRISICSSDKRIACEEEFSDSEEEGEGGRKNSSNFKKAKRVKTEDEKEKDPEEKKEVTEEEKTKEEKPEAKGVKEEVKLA

By IC50 is commonly meant the concentration needed to halve the response being measured. Turning to `O=C(NO)c1ccc2nc(-c3ccc(-c4ccc(CN5CCCC5)cc4)cc3)[nH]c2c1` [Example 197, N-hydroxy-2-[4′-(pyrrolidin-1-ylmethyl)biphenyl-4-yl]-1H-benzimidazole-6-carboxamide trifluoroacetate], the half-inhibitory concentration (IC50) on HDAC6 (setting [2]) was determined as 3.6 nM.

Regarding `O=C(NO)c1ccc2nc(-c3ccc(-c4ccccc4F)s3)[nH]c2c1` [Example 176, 2-[5-(2-fluorophenyl)thiophen-2-yl]-N-hydroxy-1H-benzimidazole-6-carboxamide], the IC50 at HDAC6 (setting [2]) came out at 2.9 nM.

Take `CN1CCN(Cc2ccc(-c3nc4ccc(C(=O)NO)cc4[nH]3)cc2)CC1` [Example 207, N-hydroxy-2-{4-[(4-methylpiperazin-1-yl)methyl]phenyl}-1H-benzimidazole-6-carboxamide]: the IC50 amounted to 7 nM at HDAC6 (setting [3]); 7 nM on HDAC6 (setting [2]); 700 nM on HDAC1; 7800 nM on HDAC2; 250 nM at HDAC3; 1800 nM on HDAC8.

As to `COc1ccc(-c2ccc(-c3nc4ccc(C(=O)NO)cc4[nH]3)o2)cc1OC` [Example 174, 2-[5-(3,4-dimethoxyphenyl)furan-2-yl]-N-hydroxy-1H-benzimidazole-6-carboxamide], at HDAC6 (setting [2]), the IC50 was found to be 4.7 nM.

As to `C[C@@H]1CN(Cc2ccc(-c3ccc(-c4nc5ccc(C(=O)NO)cc5[nH]4)cc3)cc2)C[C@H](C)O1` [Example 201, 2-(4′-{cis)-2,6-dimethylmorpholin-4-yl]methyl}biphenyl-4-yl)-N-hydroxy-1H-benzimidazole-6-carboxamide trifluoroacetate], at HDAC6 (setting [2]), the IC50 was found to be 13 nM.

Turning to `O=C(NO)c1ccc2nc(-c3ccc(-c4cccc(CN5CCCCC5)c4)cc3)[nH]c2c1` [Example 186, N-hydroxy-2-[3′-(piperidin-1-ylmethyl)biphenyl-4-yl]-1H-benzimidazole-6-carboxamide trifluoroacetate], the IC50 at HDAC6 (setting [2]) is 4.1 nM.

On to `O=C(NO)c1ccc2nc(-c3cccc(OCCOc4ccccc4)c3)[nH]c2c1` [Example 134, N-hydroxy-2-[3-(2-phenoxyethoxy)phenyl]-1H-benzimidazole-6-carboxamide], for which the half-inhibitory concentration (IC50) on HDAC6 (setting [2]) turned out to be 18 nM.

Consider `O=C(NO)c1ccc2nc(-c3ccccc3-c3ccccc3)[nH]c2c1` [Example 119, 2-biphenyl-2-yl-N-hydroxy-1H-benzimidazole-6-carboxamide], for which the IC50 on HDAC6 (setting [3]) amounted to 14 nM; at HDAC6 (setting [2]) it was 14 nM; at HDAC1, 4000 nM; at HDAC2, 29000 nM; on HDAC3 it was 2800 nM; at HDAC8 it was 710 nM.

As for `O=C(NO)c1ccc2nc(-c3ccc(-c4ccccc4F)cc3)[nH]c2c1` [Example 167, 2-(2′-fluorobiphenyl-4-yl)-N-hydroxy-1H-benzimidazole-6-carboxamide], the IC50 is 19 nM at HDAC6 (setting [2]), 140 nM in the assay with AMO-1 (plasmacytom), above 20000 nM in assay [1] and 160 nM with U266 (multiple myelom).

With `O=C(NO)c1ccc2nc(-c3ccc4c(c3)OCCO4)[nH]c2c1` [Example 11, 2-(2,3-dihydro-1,4-benzodioxin-6-yl)-N-hydroxy-1H-benzimidazole-6-carboxamide], at HDAC6 (setting [2]), the half-inhibitory concentration (IC50) came to 110 nM.

As for `COc1ccc(Oc2cccc(-c3nc4ccc(C(=O)NO)cc4[nH]3)c2)cc1` [Example 113, N-hydroxy-2-[3-(4-methoxyphenoxy)phenyl]-1H-benzimidazole-6-carboxamide], on HDAC6 (setting [2]), the IC50 is 6.6 nM.

In the case of `CC(C)Oc1ccc(-c2nc3ccc(C(=O)NO)cc3[nH]2)cc1` [Example 97, N-hydroxy-2-[4-(1-methylethoxy)phenyl]-1H-benzimidazole-6-carboxamide], the IC50 at HDAC6 (setting [3]) amounted to 12 nM; at HDAC6 (setting [2]), 12 nM; on HDAC1 it was 5700 nM; at HDAC2, 33000 nM; at HDAC3, 2400 nM; on HDAC8, 260 nM.

For the molecule `O=C(NO)c1ccc2nc(-c3ccnc4ccccc34)[nH]c2c1` [Example 66, N-hydroxy-2-quinolin-4-yl-1H-benzimidazole-6-carboxamide trifluoroacetate], the IC50 on HDAC6 (setting [2]) was found to be 14 nM.

As for `O=C(NO)c1ccc2nc(-c3ccc(-c4ccccc4)c(F)c3)[nH]c2c1` [Example 180, 2-(2-fluorobiphenyl-4-yl)-N-hydroxy-1H-benzimidazole-6-carboxamide], the 50% inhibitory concentration (IC50) is 420 nM in the assay with AMO-1 (plasmacytom), above 20000 nM in assay [1] and 560 nM in the assay on U266 (multiple myelom).

As to `O=C(NO)c1ccc2nc(-c3ccc(-c4ccc(/C=N/O)cc4)cc3)[nH]c2c1` [Example 193, N-hydroxy-2-{4′-[(E)-(hydroxyimino)methyl]biphenyl-4-yl}-1H-benzimidazole-6-carboxamide], the IC50 at HDAC6 (setting [2]) worked out at 11 nM.

Regarding `COc1c(C)cc(-c2nc3cc(C(=O)NO)ccc3n2C)cc1C` [Example 228, N-hydroxy-2-(4-methoxy-3,5-dimethylphenyl)-1-methyl-1H-benzimidazole-5-carboxamide], the IC50 was 3.5 nM at HDAC6 (setting [3]); 3.5 nM at HDAC6 (setting [2]); 2000 nM on HDAC1; 20000 nM on HDAC2; 216 nM at HDAC3; 100 nM on HDAC8.

Regarding `CN(C)C(=O)c1cccc(-c2ccc(-c3nc4ccc(C(=O)NO)cc4[nH]3)cc2)c1` [Example 195, 2-[3′-(dimethylcarbamoyl)biphenyl-4-yl]-N-hydroxy-1H-benzimidazole-6-carboxamide], on HDAC6 (setting [2]), the IC50 was determined as 24 nM.

As to `O=C(NO)c1ccc2nc(-c3ccc(-c4ccccc4)s3)[nH]c2c1` [Example 179, N-hydroxy-2-(5-phenylthiophen-2-yl)-1H-benzimidazole-6-carboxamide], at HDAC6 (setting [2]), the IC50 is 3.1 nM.

Consider `Cn1c(-c2nc3ccc(C(=O)NO)cc3[nH]2)cc2ccccc21` [Example 112, N-hydroxy-2-(1-methyl-1H-indol-2-yl)-1H-benzimidazole-6-carboxamide], for which the IC50 at HDAC6 (setting [2]) came out at 15 nM.

For `COCCCNCc1ccc(-c2ccc(-c3nc4ccc(C(=O)NO)cc4[nH]3)cc2)cc1` [Example 191, N-hydroxy-2-(4′-{[(3-methoxypropyl)amino]methyl}biphenyl-4-yl)-1H-benzimidazole-6-carboxamide trifluoroacetate], the IC50 on HDAC6 (setting [2]) turned out to be 18 nM.

`O=C(NO)c1ccc2nc(-c3cccs3)[nH]c2c1` [Example 98, N-hydroxy-2-thiophen-2-yl-1H-benzimidazole-6-carboxamide]: the IC50 on HDAC6 (setting [3]) is 7 nM; on HDAC6 (setting [2]), 7 nM; on HDAC1, 4400 nM; at HDAC2 it was 24000 nM; on HDAC3, 1900 nM; at HDAC8, 290 nM.

On to `C#Cc1ccc(-c2nc3ccc(C(=O)NO)cc3[nH]2)cc1` [Example 80, 2-(4-ethynylphenyl)-N-hydroxy-1H-benzimidazole-6-carboxamide], for which the IC50 at HDAC6 (setting [2]) amounted to 19 nM.

Turning to `CCN(CC)CCOc1ccc(-c2nc3ccc(C(=O)NO)cc3[nH]2)cc1` [Example 125, 2-{4-[2-(diethylamino)ethoxy]phenyl}-N-hydroxy-1H-benzimidazole-6-carboxamide], at HDAC6 (setting [2]), the half-maximal inhibitory concentration (IC50) came out at 14 nM.

Consider `COc1cccc(-c2nc3ccc(C(=O)NO)cc3[nH]2)c1O` [Example 85, N-hydroxy-2-(2-hydroxy-3-methoxyphenyl)-1H-benzimidazole-6-carboxamide], for which, at HDAC6 (setting [2]), the IC50 was determined as 13 nM.

Regarding `CS(=O)(=O)Nc1ccc(-c2ccc(-c3nc4ccc(C(=O)NO)cc4[nH]3)cc2)cc1` [Example 204, N-hydroxy-2-{4′-[(methylsulfonyl)amino]biphenyl-4-yl}-1H-benzimidazole-6-carboxamide], the IC50 at HDAC6 (setting [2]) came to 7.2 nM.

The record behind these values is patent publication US10512634B2, “Benzimidazole derivates useful as inhibitors of mammalian histone deacetylase activity” (KANCERA AB, priority 2015, dated 2019).
